Values after ≈ are worked out from the molar mass of the structure shown. Like-named read-outs stand apart in the source and are kept apart here.
Legend:
[1] = test system: Streptococcus pneumoniae 1/1; assay: MIC against Streptococcus pneumoniae 1/1; assay type: cell-based; settings: Table 2, Streptococcus pneumoniae 1/1, trimethoprim- and penicillin-resistant, serotype 6, clinical isolate; for MIC: read-out: MIC Sp1/1
[2] = target: T1, purified DHFR of strain Sp1/1 of Streptococcus pneumoniae (Streptococcus pneumoniae serotype 4, UniProt Q54801); assay type: biochemical; settings: Table 2; IC50 against purified DHFR of strain Sp1/1
T1 sequence (Q54801 1-168 I100L): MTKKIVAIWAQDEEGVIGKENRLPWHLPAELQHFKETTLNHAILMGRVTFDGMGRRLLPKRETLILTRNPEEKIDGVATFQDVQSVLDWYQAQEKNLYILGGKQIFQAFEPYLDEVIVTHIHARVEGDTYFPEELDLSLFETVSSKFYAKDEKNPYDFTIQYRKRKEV

[3] = target: purified DHFR of strain 157/4696 of Staphylococcus aureus (Staphylococcus aureus, UniProt P13955); assay: biochemical
[4] = test system: Staphylococcus aureus 101; assay: MIC against Staphylococcus aureus 101; assay type: cell-based; settings: Table 2, Staphylococcus aureus 101, MRSA- and trimethoprim-resistant, clinical isolate; for MIC: read-out: MIC Sa101

Chain of purified DHFR of strain 157/4696 of Staphylococcus aureus (P13955 whole entry): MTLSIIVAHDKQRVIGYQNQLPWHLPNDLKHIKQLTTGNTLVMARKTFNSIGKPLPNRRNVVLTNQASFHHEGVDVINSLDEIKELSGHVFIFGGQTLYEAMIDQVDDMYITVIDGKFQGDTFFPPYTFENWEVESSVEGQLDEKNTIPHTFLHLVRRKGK

Q: With `CCOc1cc(Cc2cnc(N)nc2N)cc(OCC)c1-c1ccc(NS(C)(=O)=O)cc1` [Example 04-b, N-[4′-(2,4-Diamino-pyrimidin-5-ylmethyl)-2′,6′-diethoxy-biphenyl-4-yl]-methanesulphonamide] as the compound, how does the MIC [1] read?
A: The MIC was 2 µg/mL (≈ 4.37 µM).

Q: And the IC50 [2]?
A: Its IC50 is 36 nM.

Q: What about the IC50 [3] of the same compound?
A: The IC50 was 1700 nM.

Q: What about the MIC [4] of the same compound?
A: The MIC was 8 µg/mL (≈ 17.5 µM).

Q: `CCOc1cc(Cc2cnc(N)nc2N)cc(OCC)c1-c1ccc(N)cc1` [Example 04-c, 5-(4′-Amino-2,6-diethoxy-biphenyl-4-ylmethyl)-pyrimidine-2 4-diamine] was tested. Which MIC [1] did it give?
A: The MIC was 4 µg/mL (≈ 10.5 µM).

Q: What about the IC50 [2] of the same compound?
A: Its IC50 is 40 nM.

Q: And the IC50 [3]?
A: The IC50 was 700 nM.

Q: And the MIC [4]?
A: Its MIC is 8 µg/mL (≈ 21.1 µM).

Q: Which results are given for `CCOc1cc(Cc2cnc(N)nc2N)cc(OCC)c1-c1ccc(CN2CCOCC2)nc1` [Example 04-d, 5-[3,5-Diethoxy-4-(6-morpholin-4-ylmethyl-pyridin-3-yl)-benzyl]-pyrimidine-2,4-diamine]?
A: MIC [1]: 4 µg/mL (≈ 8.61 µM); IC50 [2]: 65 nM; IC50 [3]: 2100 nM; MIC [4]: 8 µg/mL (≈ 17.2 µM)

Q: `CCOc1cc(Cc2cnc(N)nc2N)cc(OCC)c1-c1ccc(NC(C)=O)c(C)c1` [Example 04-e, N-[4′-(2,4-Diamino-pyrimidin-5-ylmethyl)-2′,6′-diethoxy-3-methyl-biphenyl-4yl]-acetamide] was tested. Which MIC [1] did it give?
A: The MIC was 4 µg/mL (≈ 9.18 µM).

Q: And the IC50 [2]?
A: The IC50 was 30 nM.

Q: What about the IC50 [3] of the same compound?
A: The IC50 was 1800 nM.

Q: And the MIC [4]?
A: The MIC was 8 µg/mL (≈ 18.4 µM).

Q: Which results are given for `CCOc1cc(Cc2cnc(N)nc2N)cc(OCC)c1-c1ccc(N)c(C)c1` [Example 04-f, 5-(4′-Amino-2,6-diethoxy-3′-methyl-biphenyl-4ylmethyl)-pyximidine-2,4-diamine]?
A: MIC [1]: 2 µg/mL (≈ 5.08 µM); IC50 [2]: 55 nM; IC50 [3]: 1500 nM; MIC [4]: 4 µg/mL (≈ 10.2 µM)

Q: `CCOc1cc(Cc2cnc(N)nc2N)cc(OCC)c1-c1ccc(NC(=O)CN2CCOCC2)cc1` [Example 04-g, N-[4′-(2,4-Diamino-pyrimidin-5-ylmethyl)-2′,6′-diethoxy-biphenyl-4-yl]-2-morpholin-4-yl-acetamide] was tested. Which MIC [1] did it give?
A: The MIC was 4 µg/mL (≈ 7.9 µM).

Q: What about the IC50 [2] of the same compound?
A: Its IC50 is 40 nM.

Q: What about the IC50 [3] of the same compound?
A: Its IC50 is 1100 nM.

Q: What about the MIC [4] of the same compound?
A: Its MIC is 8 µg/mL (≈ 15.8 µM).

Q: With `CCOc1cc(Cc2cnc(N)nc2N)cc(OCC)c1-c1ccc(N)c(C#N)c1` [Example 04-h, 4-Amino-4′-(2,4-diamino-pyrimidin-5-ylmethyl)-2′,6′diethoxy-biphenyl-3-carbonitrile] as the compound, how does the MIC [1] read?
A: The MIC was 2 µg/mL (≈ 4.94 µM).

Q: What about the IC50 [2] of the same compound?
A: Its IC50 is 42 nM.

Q: What about the IC50 [3] of the same compound?
A: Its IC50 is 1000 nM.

Q: What about the MIC [4] of the same compound?
A: Its MIC is 4 µg/mL (≈ 9.89 µM).

Q: What does the source list for `CCOc1cc(Cc2cnc(N)nc2N)cc(OCC)c1-c1ccc(OC)c(N)c1` [Example 04-i, 5-(3′-Amino-2,6-diethoxy-4′-methoxy-biphenyl-4-ylmethyl)-pyrimidine-2,4-diamine]?
A: MIC [1]: 4 µg/mL (≈ 9.77 µM); IC50 [2]: 43 nM; IC50 [3]: 1200 nM; MIC [4]: 8 µg/mL (≈ 19.5 µM)

Q: What does the source list for `CCOc1cc(Cc2cnc(N)nc2N)cc(OCC)c1-c1ccc(CN2CCOCC2)c(N)c1` [Example 04-j, 5-(3′-Amino-2,6-diethoxy-4′-morpholino-4-ylmethy-biphenyl)-pyrimidine-2,4-diamine]?
A: MIC Sp1/1 [1]: 4 µg/mL (≈ 8.36 µM); IC50 [2]: 48 nM; IC50 ([3]; Table 2, IC50 against purified DHFR of strain 157/4696 (highly trimethoprim-resistant; clinical isolate), read-out: DHFR Sa1): 850 nM; MIC Sa101 [4]: 8 µg/mL (≈ 16.7 µM)

Q: For `CCOc1cc(Cc2cnc(N)nc2N)cc(OCC)c1-c1cnc(N2CCOCC2)nc1` [Example 04-k, 5-[3,5-Diethoxy-4-(2-morpholin-4-yl-pyrimidin-5-yl)-benzyl]-pyrimidine-2,4-diamine], which MIC [1] is on record?
A: Its MIC is 4 µg/mL (≈ 8.86 µM).

Q: And the IC50 [2]?
A: The IC50 was 95 nM.

Q: What about the IC50 [3] of the same compound?
A: The IC50 was 10000 nM.

Q: What about the MIC [4] of the same compound?
A: The MIC was 8 µg/mL (≈ 17.7 µM).

Q: How did the MIC [1] turn out when `CCOc1cc(Cc2cnc(N)nc2N)cc(OCC)c1-c1ccc(N)c(OC)c1` [Example 04-l, 5-(4′-Amino-2,6-diethoxy-3′-methoxy-biphenyl-4-ylmethyl)-pyrimidine-2,4-diamine] was run?
A: The MIC was 4 µg/mL (≈ 9.77 µM).

Q: What about the IC50 [2] of the same compound?
A: Its IC50 is 82 nM.

Q: And the IC50 [3]?
A: The IC50 was 1900 nM.

Q: And the MIC [4]?
A: Its MIC is 8 µg/mL (≈ 19.5 µM).

Q: For `CCOc1cc(Cc2cnc(N)nc2N)cc(OCC)c1-c1ccc2ncccc2c1` [Example 04-m, 5-(3,5-Diethoxy-4-quinolin-6-yl-benzyl)-pyrimidine-2,4-diamine], which MIC [1] is on record?
A: The MIC was 8 µg/mL (≈ 19.3 µM).

Q: What about the IC50 [2] of the same compound?
A: Its IC50 is 72 nM.

Q: What about the IC50 [3] of the same compound?
A: The IC50 was 1800 nM.

Q: And the MIC [4]?
A: Its MIC is 8 µg/mL (≈ 19.3 µM).
